Measurements taken from patent US20240226117A1, “TREATMENT OF CONGENITAL ADRENAL HYPOPLASIA” (ReveraGen BioPharma, Inc., priority 2021, published 2024).

Tests used:
Format in all cases: in vivo, human
[1] = tested on: ambulant boys with DMD; experiment: VBP15-004 bone turnover biomarkers; details: for Osteocalcin, difference vs. prednisone / Procollagen 1 N-Terminal Propeptide (P1NP), difference vs. prednisone / Type I Collagen C-Telopeptides (CTX), difference vs. prednisone: Week 24, p < 0.001
[2] = tested on: DMD participants; experiment: VBP15-003/VBP15-LTE motor outcomes over 18 months (TTSTAND, TTRW, TTCLIMB, 6MWT, NSAA); details: ANCOVA; for TTCLIMB velocity, LS mean difference (SE) / TTSTAND velocity, LS mean difference (SE): vamorolone 2.0 or 6.0 mg/kg/day 18 months versus corticosteroid-naïve DNHS
Method: Three consecutive clinical trials of vamorolone treatment of DMD were conducted by CINRG (VBP15-002 [NCT02760264]: VBP15-003 [NCT02760277]: VBP15-LTE [NCT03038399]). A total of 48 participants (ages 4 to <7 years) were initially enrolled into VBP15-002, with trial participants completing month 12 of the 24-month VBP15-LTE study.
The consecutive vamorolone trials (VBP15-002, VBP15-003, VBP15-LTE) were open-label with no placebo comparator. Corticosteroid-naïve and corticosteroid-treated DMD participant comparators were group-matched participants from the CINRG DNHS (NCT00468832). The CINRG DNHS was an observational, prospective case-control study of 551 participants (440 with DMD, 111 healthy peers). For group matching between vamorolone-treated participants and CINRG DNHS participants, prespecified criteria were defined for matching within the interim statistical analysis plan (iSAP). Age-matched CINRG DNHS participants included those continuously corticosteroid-naïve over an 18-month period (n=19) or continuously corticosteroid-treated over an 18-month period (n=68). For the 68 corticosteroid-treated participants, as this was an observational cohort, corticosteroid doses and regimens varied based on clinician discretion. Although all 68 participants were treated for 18 months continuously, the age at initiation of corticosteroids varied. Thus, the total duration of corticosteroid treatment was longer than 18 months for most participants.
Assessments of efficacy were motor outcomes (primary outcome: time to stand from supine [TTSTAND]: secondary outcomes: time to run/walk 10 meters [TTRW], time to climb four stairs [TTCLIMB], distance covered in 6-minute walk test [6MWT], and the North Star Ambulatory Assessment [NSAA]). 6MWT and NSAA were not assessed in most CINRG DNHS participants and were not compared to vamorolone-treated participants. According to standard operating procedures, clinical evaluators were trained to harmonize the CINRG vamorolone, CINRG DNHS, and CINRG prednisone studies. Reliability of these outcomes (percent coefficient of variation) has been reported for the VBP15-002/VBP15-003 studies. Assessments were done at baseline (VBP15-002 entry), 24 weeks (VBP15-003 last visit), and 18 months (VBP15-LTE midpoint assessment at 12 months).
Only participants completing VBP15-002 and VBP15-003 were eligible to enroll in VBP15-LTE. Participants received vamorolone at 1 of 4 dose levels (0.25, 0.75, 2.0, or 6.0 mg/kg/day) and at the same dose level in both the 4-week VBP15-002 trial and the 24-week VBP15-003 trial. If participants, their families, and their physicians wished to continue vamorolone treatment upon exiting the VBP15-003 trial, they were offered participation in the 24-month long-term extension (VBP15-LTE). The last visit of the VBP15-003 trial was commensurate with the first visit of the VBP15-LTE trial. In all studies, study medication was provided as 4% flavored liquid suspension and was dosed according to body weight and given once daily in the morning with food.
Vamorolone-treated participants were initially enrolled into VBP15-002 and VBP15-003 in 4 dose groups (0.25, 0.75, 2.0, and 6.0 mg/kg/day: groups A-D). Upon entering VBP15-LTE, vamorolone group A participants had 2 or 3 sequential dose escalations and were treated with 2.0 or 6.0 mg/kg/day for the last 3-9 months of the 18 months: group B participants had 1 or 2 dose escalations and were treated with 2.0 or 6.0 mg/kg/day for the last 9-11 months. Groups C and D were treated for 18 months at 2.0 or 6.0 mg/kg/day (S1 Fig).
The current study is the first to evaluate the longer-term tolerability, efficacy, and safety of vamorolone in DMD. […] Given the variable timing of dose escalations, it was prespecified that initial analyses of drug-related efficacy and safety would be limited to those participants who had 18 months of treatment with 2.0 mg/kg/day vamorolone or more (dose group C+dose group D: n=23). […]

[3] = tested on: DMD participants; experiment: Skeletal maturation by wrist x-ray, VBP15-LTE Month 24; details: for Bone Age difference to Chronologic Age, mean (SD): wrist x-ray at LTE Month 24, n = 39
From the text: In certain embodiments, the difference between chronological age of the human patient and the bone age of the human patient is reduced. A child's bone age (also called the skeletal age) is assigned by determining which of the standard X-ray images in the atlas most closely match the appearance of the child's bones on the X-ray. A difference between a child's bone age and chronological age might indicate a growth problem. The larger the difference between the bone age of a human patient and their chronological age, the greater the growth problem or disease symptom.
In addition, 39/41 LTE participants had wrist x-ray at Month 24; the mean bone age to chronologic age difference was −1.1 (p<0.001, CI −1.5, −0.7), indicating possible skeletal maturation delay (Table 7).

[4] = vamorolone 18 months versus corticosteroid-naïve participants

C[C@@H]1C[C@H]2[C@@H]3CCC4=CC(=O)C=C[C@]4(C)C3=CC[C@]2(C)[C@@]1(O)C(=O)CO [Vamorolone, 17α,21-dihydroxy-16α-methylpregna-1,4,9(11)-triene-3,20-dione]
Osteocalcin, mean (SEM) change at Week 24 ([1]; Vamorolone 2.0 mg, N = 17): 8.3 (3.1) ng/ml | Procollagen 1 N-Terminal Propeptide (P1NP), mean (SEM) change at Week 24 ([1]; Vamorolone 2.0 mg, N = 17): 48 (27) ng/mL | Type I Collagen C-Telopeptides (CTX), mean (SEM) change at Week 24 ([1]; Vamorolone 2.0 mg, N = 17): 177 (52) pg/mL | Osteocalcin, difference vs. prednisone ([1]; Vamorolone 2.0 mg): 23.5 ng/mL | Procollagen 1 N-Terminal Propeptide (P1NP), difference vs. prednisone ([1]; Vamorolone 2.0 mg): 182 ng/mL | Type I Collagen C-Telopeptides (CTX), difference vs. prednisone ([1]; Vamorolone 2.0 mg): 477 pg/mL | Osteocalcin, difference vs. prednisone ([1]; Vamorolone 6.0 mg): 16.9 ng/mL | Procollagen 1 N-Terminal Propeptide (P1NP), difference vs. prednisone ([1]; Vamorolone 6.0 mg): 124 ng/mL | Type I Collagen C-Telopeptides (CTX), difference vs. prednisone ([1]; Vamorolone 6.0 mg): 390 pg/mL | TTCLIMB velocity, LS mean difference (SE) [2]: 0.059 (0.026) event/second | TTSTAND velocity, LS mean difference (SE) [2]: 0.042 (0.024) event/second | TTCLIMB velocity, LS mean difference (SE) ([2]; listed as vamorolone): 0.059 event/second | TTSTAND velocity, LS mean difference (SE) ([2]; listed as vamorolone): 0.042 event/second | TTCLIMB in seconds units, LS mean difference [2, 4]: -0.34 s | TTRW in seconds units, LS mean difference [2, 4]: -0.84 s | Bone Age difference to Chronologic Age, mean (SD) [3]: −1.1 (1.2), yr | Bone Age difference to Chronologic Age, mean (SD) ([3]; listed as vamorolone): −1.1 yr | LTE Month 24 Bone Age, mean (SD) ([3]; wrist x-ray, n = 39, chronologic age 8.0 (1.0) yr): 6.8 (1.4), n = 39 yr
